{
  "source": "patent US20220193062A1",
  "about": "(DENOVO BIOPHARMA LLC, priority 2018, published 2022)",
  "key": {"HBL-1 cells [1]": {"tested_on": "HBL-1 cells", "test": "Apoptosis assay, annexin V flow cytometry", "type": "cell-based", "conditions": "HBL-1, 48 h"}, "HBL-1 cells [2]": {"tested_on": "HBL-1 cells", "test": "Transwell invasion assay (Matrigel)", "type": "cell-based", "conditions": "HBL-1, 2 micromolar enzastaurin and/or 0.02 micromolar ibrutinib"}, "HBL-1 cells [3]": {"tested_on": "HBL-1 cells", "test": "Transwell migration assay", "type": "cell-based", "conditions": "HBL-1, 2 micromolar enzastaurin and/or 0.02 micromolar ibrutinib"}, "[4]": {"tested_on": "signals downstream of BCR in HBL-1, TMD-8, and SU-DHL-6 cells", "test": "Western blot of downstream BCR signalling", "type": "cell-based"}, "relapsed DLBCL patients": {"tested_on": "relapsed DLBCL patients", "conditions": "cited from earlier work"}, "[5]": {"tested_on": "ABC-DLBCL HBL-1 cells engrafted in NPG mice", "test": "HBL-1 lymphoma xenograft model", "type": "in vivo", "conditions": "for tumour weight: end of the experiment (day 39), vehicle 1321.50±168.84 mg; for reduction of tumor volume: enzastaurin 50 mg/kg BID oral, ibrutinib 12 mg/kg QD oral, 21 days"}, "DLBCL patients [6]": {"tested_on": "DLBCL patients", "conditions": "DLBCL trials of enzastaurin; cited from earlier work"}, "[7]": {"tested_on": "ABC and GCB types of DLBCL cell lines", "test": "Cell Titer-Glo cell viability, enzastaurin alone, 9 DLBCL cell lines", "type": "cell-based", "conditions": "72 h; read-out: 50% inhibitory concentration (IC50) of cell proliferation"}, "DLBCL patients [8]": {"tested_on": "DLBCL patients", "conditions": "Phase I/II studies, cited from earlier work"}, "SU-DHL-6": {"tested_on": "SU-DHL-6", "test": "Cell proliferation assay (Cell Titer AQueous One Solution), Example 2", "type": "cell-based", "conditions": "Homo sapiens; SU-DHL-6, 72 h, 0.014 μM-10 μM"}, "[9]": {"tested_on": "p-BTK in HBL-1 and TMD8 cells", "test": "Western blot of p-BTK after enzastaurin", "type": "cell-based", "conditions": "2 hours treatment"}, "HBL-1 cells [10]": {"tested_on": "HBL-1 cells", "test": "Whole-transcriptome RNA-seq", "type": "cell-based", "conditions": "HBL-1, 24 hours"}, "high-risk DLBCL patients": {"tested_on": "high-risk DLBCL patients", "conditions": "enzastaurin alone, after remission of B cell lymphoma; cited from earlier work"}, "SU-DHL-5": {"tested_on": "SU-DHL-5", "test": "Cell proliferation assay (Cell Titer AQueous One Solution), Example 2", "type": "cell-based", "conditions": "Homo sapiens; SU-DHL-5, 72 h, 0.014 μM-10 μM"}, "[11]": {"tested_on": "PARP, XIAP, MCL-1, caspase-3, Bcl-2 in HBL-1 cells", "test": "Western blot of proteins associated with apoptosis", "type": "cell-based", "conditions": "HBL-1, 48 hours"}, "BTK [12]": {"target": "BTK (Homo sapiens, UniProt Q06187)", "sequence (Q06187 whole entry, species assumed)": "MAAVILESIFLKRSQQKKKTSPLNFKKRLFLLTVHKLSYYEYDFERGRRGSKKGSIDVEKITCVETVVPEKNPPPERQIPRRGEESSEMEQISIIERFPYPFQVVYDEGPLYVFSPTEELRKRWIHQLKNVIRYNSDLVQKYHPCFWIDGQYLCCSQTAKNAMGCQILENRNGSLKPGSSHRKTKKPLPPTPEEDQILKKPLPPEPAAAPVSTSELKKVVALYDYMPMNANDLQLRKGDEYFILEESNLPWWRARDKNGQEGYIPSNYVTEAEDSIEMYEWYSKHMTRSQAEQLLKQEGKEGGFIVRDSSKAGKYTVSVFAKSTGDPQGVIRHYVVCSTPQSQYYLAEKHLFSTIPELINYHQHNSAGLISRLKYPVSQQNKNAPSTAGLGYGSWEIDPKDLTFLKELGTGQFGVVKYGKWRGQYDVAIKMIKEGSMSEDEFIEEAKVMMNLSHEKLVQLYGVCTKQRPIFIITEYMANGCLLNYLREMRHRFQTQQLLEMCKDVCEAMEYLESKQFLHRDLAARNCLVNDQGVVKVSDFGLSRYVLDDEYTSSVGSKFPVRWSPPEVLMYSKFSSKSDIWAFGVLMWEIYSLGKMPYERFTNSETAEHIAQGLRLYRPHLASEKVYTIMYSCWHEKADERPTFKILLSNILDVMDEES", "conditions": "cited from earlier work"}, "[13]": {"target": "T1, interleukin-2-inducible T-cell kinase (ITK) (Homo sapiens, UniProt Q08881)", "T1 sequence (Q08881 1-620)": "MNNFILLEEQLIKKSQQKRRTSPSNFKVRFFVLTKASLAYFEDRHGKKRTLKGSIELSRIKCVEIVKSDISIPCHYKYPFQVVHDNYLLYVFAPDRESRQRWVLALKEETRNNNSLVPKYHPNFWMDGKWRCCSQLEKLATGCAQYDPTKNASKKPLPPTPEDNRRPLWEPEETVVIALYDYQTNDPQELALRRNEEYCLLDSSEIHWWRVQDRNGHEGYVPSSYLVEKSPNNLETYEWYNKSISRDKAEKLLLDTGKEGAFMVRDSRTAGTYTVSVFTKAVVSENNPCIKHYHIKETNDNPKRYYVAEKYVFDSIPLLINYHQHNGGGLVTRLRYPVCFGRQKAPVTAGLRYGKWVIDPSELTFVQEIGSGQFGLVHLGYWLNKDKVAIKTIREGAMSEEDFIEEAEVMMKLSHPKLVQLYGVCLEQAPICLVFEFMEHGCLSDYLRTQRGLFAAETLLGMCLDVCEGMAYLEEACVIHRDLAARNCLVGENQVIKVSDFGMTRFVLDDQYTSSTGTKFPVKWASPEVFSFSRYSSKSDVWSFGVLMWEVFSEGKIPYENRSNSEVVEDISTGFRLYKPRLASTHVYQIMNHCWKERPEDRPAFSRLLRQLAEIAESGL", "conditions": "cited from earlier work"}, "[14]": {"tested_on": "Bmx, CSK, FGR, BRK, and HCK", "conditions": "cited from earlier work"}, "[15]": {"tested_on": "EGFR, Yes, ErbB2, and JAK3", "conditions": "cited from earlier work"}, "[16]": {"target": "T2, bone marrow tyrosine kinase on chromosome X (BMX) (Homo sapiens, UniProt P51813)", "T2 sequence (P51813 1-675)": "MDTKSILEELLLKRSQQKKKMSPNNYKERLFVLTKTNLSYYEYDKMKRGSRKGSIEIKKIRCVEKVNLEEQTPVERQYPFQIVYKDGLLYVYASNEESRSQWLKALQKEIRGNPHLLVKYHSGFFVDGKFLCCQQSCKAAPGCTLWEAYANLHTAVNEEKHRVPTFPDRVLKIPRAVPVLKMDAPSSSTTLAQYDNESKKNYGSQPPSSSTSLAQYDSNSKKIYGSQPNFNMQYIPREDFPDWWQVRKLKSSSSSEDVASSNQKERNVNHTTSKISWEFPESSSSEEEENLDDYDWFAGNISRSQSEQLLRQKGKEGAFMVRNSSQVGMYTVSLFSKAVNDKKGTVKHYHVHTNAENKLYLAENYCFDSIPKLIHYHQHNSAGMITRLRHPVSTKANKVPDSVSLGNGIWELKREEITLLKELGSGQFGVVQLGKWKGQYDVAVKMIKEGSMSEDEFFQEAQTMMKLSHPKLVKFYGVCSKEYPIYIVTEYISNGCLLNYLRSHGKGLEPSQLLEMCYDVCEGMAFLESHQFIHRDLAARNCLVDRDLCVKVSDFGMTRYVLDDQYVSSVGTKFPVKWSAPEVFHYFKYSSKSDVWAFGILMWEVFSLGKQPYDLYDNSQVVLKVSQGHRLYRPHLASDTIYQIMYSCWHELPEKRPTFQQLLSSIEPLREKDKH", "conditions": "targets Cys496 in the BMX ATP binding domain; cited from earlier work"}, "Plx1": {"target": "Plx1 (Xenopus laevis, UniProt P70032)", "sequence (P70032 whole entry)": "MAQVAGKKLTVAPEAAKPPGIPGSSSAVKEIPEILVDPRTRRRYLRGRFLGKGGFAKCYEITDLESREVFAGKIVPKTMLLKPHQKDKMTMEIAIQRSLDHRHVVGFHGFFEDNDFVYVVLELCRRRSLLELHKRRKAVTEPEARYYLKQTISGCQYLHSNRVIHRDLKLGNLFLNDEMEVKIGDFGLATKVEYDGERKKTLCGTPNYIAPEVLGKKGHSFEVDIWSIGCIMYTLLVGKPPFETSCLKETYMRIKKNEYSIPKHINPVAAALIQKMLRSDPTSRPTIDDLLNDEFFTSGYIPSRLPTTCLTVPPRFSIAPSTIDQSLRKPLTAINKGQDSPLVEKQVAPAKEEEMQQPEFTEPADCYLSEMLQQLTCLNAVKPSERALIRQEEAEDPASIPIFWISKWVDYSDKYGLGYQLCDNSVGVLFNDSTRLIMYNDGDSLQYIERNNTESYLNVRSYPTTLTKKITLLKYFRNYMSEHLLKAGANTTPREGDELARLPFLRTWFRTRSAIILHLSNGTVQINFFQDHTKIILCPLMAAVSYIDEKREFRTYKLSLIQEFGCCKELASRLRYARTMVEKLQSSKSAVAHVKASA", "conditions": "cited from earlier work"}, "PLK3": {"target": "PLK3 (Homo sapiens, UniProt Q9H4B4)", "sequence (Q9H4B4 whole entry, species assumed)": "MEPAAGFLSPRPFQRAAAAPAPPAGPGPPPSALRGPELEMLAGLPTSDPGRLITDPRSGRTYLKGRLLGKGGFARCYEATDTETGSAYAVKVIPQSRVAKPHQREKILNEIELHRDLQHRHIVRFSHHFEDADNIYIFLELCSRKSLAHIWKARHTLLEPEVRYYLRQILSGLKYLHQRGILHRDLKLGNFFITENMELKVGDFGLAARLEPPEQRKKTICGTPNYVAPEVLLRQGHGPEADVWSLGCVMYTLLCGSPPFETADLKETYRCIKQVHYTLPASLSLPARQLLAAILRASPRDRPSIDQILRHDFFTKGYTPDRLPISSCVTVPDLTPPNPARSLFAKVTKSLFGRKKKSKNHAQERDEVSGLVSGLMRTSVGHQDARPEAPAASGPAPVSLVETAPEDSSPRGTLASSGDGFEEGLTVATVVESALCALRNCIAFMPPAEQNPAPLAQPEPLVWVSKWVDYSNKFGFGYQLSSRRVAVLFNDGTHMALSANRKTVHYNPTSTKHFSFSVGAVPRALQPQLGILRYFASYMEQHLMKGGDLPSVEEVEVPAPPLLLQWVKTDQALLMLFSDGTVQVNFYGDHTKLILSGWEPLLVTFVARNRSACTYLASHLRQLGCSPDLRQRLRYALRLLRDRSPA", "conditions": "cited from earlier work"}, "BTK [17]": {"target": "BTK (Rattus norvegicus, UniProt Q5S255)", "sequence (Q5S255 1-660)": "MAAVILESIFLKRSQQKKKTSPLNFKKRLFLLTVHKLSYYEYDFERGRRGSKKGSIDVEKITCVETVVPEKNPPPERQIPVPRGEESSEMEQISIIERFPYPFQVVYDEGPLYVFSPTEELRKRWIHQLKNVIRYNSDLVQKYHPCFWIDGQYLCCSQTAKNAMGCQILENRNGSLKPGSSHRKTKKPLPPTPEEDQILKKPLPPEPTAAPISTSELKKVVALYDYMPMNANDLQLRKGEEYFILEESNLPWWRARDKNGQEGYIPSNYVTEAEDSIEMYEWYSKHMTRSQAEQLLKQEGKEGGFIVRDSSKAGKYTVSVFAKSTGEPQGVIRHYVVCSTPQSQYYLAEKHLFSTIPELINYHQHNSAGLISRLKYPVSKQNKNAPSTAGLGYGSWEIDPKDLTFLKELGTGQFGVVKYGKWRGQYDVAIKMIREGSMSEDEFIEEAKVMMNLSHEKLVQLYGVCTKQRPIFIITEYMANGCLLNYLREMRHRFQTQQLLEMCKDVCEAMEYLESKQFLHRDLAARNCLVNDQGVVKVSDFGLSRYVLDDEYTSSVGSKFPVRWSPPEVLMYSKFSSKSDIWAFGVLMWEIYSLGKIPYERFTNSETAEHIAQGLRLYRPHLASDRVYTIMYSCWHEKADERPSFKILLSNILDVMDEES", "conditions": "read-out: in vivo IC50; rats; cited from earlier work"}},
  "note": "Like-named read-outs stand apart in the source and are kept apart here.",
  "data": [
    {"smiles": "C=CC(=O)N1CCC[C@@H](n2nc(-c3ccc(Oc4ccccc4)cc3)c3c(N)ncnc32)C1", "note": "[ibrutinib]", "values": [
      {"measurement": "apoptosis as measured by annexin V staining", "setting": "HBL-1 cells [1]; first-listed of two ibrutinib doses (FIG. 3a)", "result": "15.9±6.0", "unit": "%"},
      {"measurement": "apoptosis as measured by annexin V staining", "setting": "HBL-1 cells [1]; second-listed of two ibrutinib doses (FIG. 3a)", "result": "19.0±6.7", "unit": "%"},
      {"measurement": "invasive abilities", "setting": "HBL-1 cells [2]", "result": "85.0 % of control"},
      {"measurement": "migration abilities", "setting": "HBL-1 cells [3]", "result": "70.2 % of control"},
      {"measurement": "phosphorylation of BTK and AKT", "setting": "[4]", "result": "reduced"},
      {"measurement": "phosphorylation of mTOR, PLCγ2, ERK and P38", "setting": "[4]; combination compared to each monotherapy alone", "result": "mild effect"},
      {"measurement": "overall response rate (ORR)", "setting": "relapsed DLBCL patients; patients with ABC-DLBCL (14/38)", "result": 37, "unit": "%"},
      {"measurement": "overall response rate (ORR)", "setting": "relapsed DLBCL patients; patients with GCB-DLBCL (1/20)", "result": 5, "unit": "%"},
      {"measurement": "tumour weight", "setting": "[5]", "result": "1141.80 ± 235.57", "unit": "mg"},
      {"measurement": "reduction of tumor volume", "setting": "[5]", "result": "weak activity"}
    ]},
    {"smiles": "Cn1cc(C2=C(c3cn(C4CCN(Cc5ccccn5)CC4)c4ccccc34)C(=O)NC2=O)c2ccccc21", "note": "[enzastaurin]", "values": [
      {"measurement": "survival of DGM1-positive over DGM1-negative patients", "setting": "DLBCL patients [6]", "result": "significantly improved survival"},
      {"measurement": "IC50", "setting": "[7]", "result": "6.7 to 16", "unit": "µM"},
      {"measurement": "apoptosis as measured by annexin V staining", "setting": "HBL-1 cells [1]; enzastaurin alone (concentration in FIG. 3a)", "result": "25.5±5.4", "unit": "%"},
      {"measurement": "invasive abilities", "setting": "HBL-1 cells [2]", "result": "97.0 % of control"},
      {"measurement": "patients experiencing FFP 20˜50 months", "setting": "DLBCL patients [8]; 4/55 patients", "result": 7, "unit": "%"},
      {"measurement": "patients with prolonged freedom from progression (FFP≥4 cycles)", "setting": "DLBCL patients [8]; 8/55 patients", "result": 15, "unit": "%"},
      {"measurement": "migration abilities", "setting": "HBL-1 cells [3]", "result": "79.0 % of control"},
      {"measurement": "phosphorylation of glycogen synthase kinase 3β (GSK3β)", "setting": "[4]; low doses, 60 min and 120 min", "result": "clearly reduced"},
      {"measurement": "p-BTK, p-ERK and p-AKT expression", "setting": "[4]; short-term and low-dose treatment", "result": "increasing"},
      {"measurement": "IC50", "setting": "SU-DHL-6", "result": 5.9, "unit": "µM"},
      {"measurement": "tumour weight", "setting": "[5]", "result": "1151.62 ± 163.79", "unit": "mg"},
      {"measurement": "reduction of tumor volume", "setting": "[5]", "result": "weak activity"},
      {"measurement": "p-BTK level", "setting": "[9]", "result": "significant upregulation"},
      {"measurement": "downregulated genes contained in the combination treatment group", "setting": "HBL-1 cells [10]", "result": 365, "unit": "genes"},
      {"measurement": "share of downregulated transcripts contained in the combination treatment group", "setting": "HBL-1 cells [10]", "result": "Approximately 91%"},
      {"measurement": "transcripts significantly down", "setting": "HBL-1 cells [10]; 2 micromolar enzastaurin and/or 0.02 micromolar ibrutinib, p<0.05", "result": 339, "unit": "transcripts"},
      {"measurement": "disease-free survival (DFS)", "setting": "high-risk DLBCL patients", "result": "did not significantly improve"},
      {"measurement": "IC50", "setting": "SU-DHL-5", "result": 3.6, "unit": "µM"},
      {"measurement": "cleavage of PARP and caspase-3", "setting": "[11]", "result": "increase the cleavage of PARP and caspase-3 slightly"}
    ]},
    {"smiles": "NC(=O)[C@H]1CCN(c2ncnc(N)c2F)C[C@@H]1N1CCC[C@@H](Nc2cc(Cl)cc(C(F)(F)F)c2)C1=O", "note": "[SNS-062]", "values": [
      {"measurement": "Kd", "setting": "BTK [12]", "result": 0.0003, "unit": "µM"},
      {"measurement": "Kd", "setting": "[13]", "result": 0.0022, "unit": "µM"}
    ]},
    {"smiles": "C=CC(=O)N1CCC[C@@H](n2nc(-c3ccc(Oc4ccccc4)cc3)c3c(N)ncnc32)C1", "note": "(racemic) [PCI-32765]", "values": [
      {"measurement": "inhibition of Bmx, CSK, FGR, BRK, and HCK", "setting": "[14]", "result": "moderate inhibition"},
      {"measurement": "activity on EGFR, Yes, ErbB2, and JAK3", "setting": "[15]", "result": "lower activity"}
    ]},
    {"smiles": "C=CC(=O)Nc1cc(-n2c(=O)ccc3cnc4ccc(-c5ccc(NS(C)(=O)=O)cc5)cc4c32)ccc1C", "note": "[BMX-IN-1]", "values": [
      {"measurement": "IC50", "setting": "[16]", "result": 0.008, "unit": "µM"}
    ]},
    {"smiles": "C/C(O)=C(\\C#N)C(=O)Nc1cc(Br)ccc1Br", "note": "[LFM-A13]", "values": [
      {"measurement": "IC50", "setting": "Plx1", "result": 10, "unit": "µM"},
      {"measurement": "IC50", "setting": "PLK3", "result": 61, "unit": "µM"}
    ]},
    {"smiles": "Cc1c(NC(=O)c2cc3c(s2)CCCC3)cccc1-c1cn(C)c(=O)c(Nc2ccc([C@@H]3C(=O)N(C)CCN3C)cc2)n1", "note": "[GDC-0834]", "values": [
      {"measurement": "IC50", "setting": "BTK [17]", "result": 5.6, "unit": "µM"}
    ]}
  ]
}
